Data set [1] deals with maximal electroshock. As to the kind of experiment: Anticonvulsant action, maximal electroshock (MES), mouse i.p. Conditions: ip, read-out: Action in % of the protected animals. The class given is in vivo. On the procedure:
(§1) The compounds according to the invention were tested for their anticonvulsant action in vivo after i.p. administration to mice according to the international customary standard (Pharmac. Weekblad, Sc. Ed. 14, 132 (1992) and Antiepileptic Drugs, Third Ed., Raven Press, New York 1989) (Table 1). [table]

Data set [2] deals with s.c. pentetrazole. As to the kind of experiment: Anticonvulsant action, s.c. pentetrazole (PTZ), mouse i.p. The class given is in vivo. The settings on record: ip, read-out: Action in % of the protected animals. The method, then: as §1
Data set [3] is described as follows: Octanol/water partition coefficient. It is filed as physicochemical.

Here are results for 14 compounds from patent publication US20030186997A1, “2,5-Dihydro-pyrazolo[3,4-d]pyrimidin-4-ones with an anticonsulsive action and methods for producing the same” (priority 2000, published 2003).

Broadly, the logP is a log measure of how a compound divides between an organic and an aqueous phase. Usually melting point stands for the temperature, or range, at which the solid turns liquid. Compound `O=c1c2c[nH]nc2ncn1Cc1ccccc1C(F)(F)F` [Compound 8, 5-(2-trifluoromethylbenzyl)-2,5-dihydropyrazolo[3,4-d]-pyrimidin-4-one] displayed a melting point of 168 to 171 °C. Moreover, in data set [1], the responders at 100 mg/kg was found to be 67%. In addition, in data set [2], the responders at 100 mg/kg is 20%. Further, in data set [3], the logP was 0.78.
For `O=c1c2cn(CC3CCCO3)nc2ncn1Cc1ccccc1Cl` (centres unmarked) [Compound 60, 5-(2-chlorobenzyl)-2-tetrahydrofuran-2-ylmethyl-2,5-dihydropyrazolo[3,4-d]pyrimidin-4-one], the melting point was 128 to 130 °C. In addition, the responders at 100 mg/kg in data set [1] came out at 67%. In data set [3], this compound yielded a logP of 1.67.
`O=c1c2cn(Cc3ccccc3Cl)nc2ncn1Cc1ccccc1Cl` [Compound 58, 2,5-bis(2-chlorobenzyl)-2,5-dihydropyrazolo[3,4-d]-pyrimidin-4-one]: the melting point fell in the range of 167 to 168 °C. In addition, the logP in data set [3] amounted to 2.59.
Turning to `CCCC(CCC)C(=O)O` [Valproate, reference compound], the values for the responders at 100 mg/kg in data set [1] and in data set [2] were 0% and 30%, respectively.
For `Cn1cc2c(=O)n(Cc3ccccc3)cnc2n1` [Compound 13, 5-benzyl-2-methyl-2,5-dihydropyrazolo[3,4-d]pyrimidin-4-one], the melting point lay within 202 to 204 °C. Also, the responders at 100 mg/kg in data set [1] is 100%. Besides, in data set [3], the logP stood at 0.72.
`O=c1c2c[nH]nc2ncn1Cc1ccccc1` [5-benzyl-2,5-dihydropyrazolo[3,4-d]pyrimidin-4-one, reference compound]: the responders at 30 mg/kg in data set [1] and in data set [2] (dose 30 mg/kg) was 100% each time. In data set [3], this compound came in with a log partition coefficient (logP) of 0.47.
Turning to `O=c1c2c[nH]nc2ncn1Cc1ccc(Cl)cc1` [Compound 2, 5-(4-chlorobenzyl)-2,5-dihydropyrazolo[3,4-d]pyrimidin-4-one], the melting point was in the range of 246 to 247 °C. Further, the responders at 100 mg/kg in data set [1] turned out to be 33%. Also, the logP in data set [3] was found to be 1.34.
As to `Cc1cc(C)c(Cn2cnc3nn(C)cc3c2=O)c(C)c1` [Compound 32, 5-(2,4,6-trimethylbenzyl)-2-methyl-2,5-dihydropyrazolo[3,4-d]pyrimidin-4-one], the melting point is 182 to 184 °C.
On to `O=c1c2c[nH]nc2ncn1Cc1c(F)cccc1F` [Compound 5, 5-(2,6-difluorobenzyl)-2,5-dihydropyrazolo[3,4-d]-pyrimidin-4-one], for which the melting point is 214 to 216 °C. The responders at 30 mg/kg in data set [1] was determined as 100%. This compound also yielded a logP in data set [3] of 0.28.
`Cn1cc2c(=O)n(Cc3cccc(Cl)c3)cnc2n1` [Compound 19, 5-(3-chlorobenzyl) -2-methyl-2,5-dihydropyrazolo[3,4-d]-pyrimidin-4-one] returned a melting point of 169 to 170 °C. The responders at 100 mg/kg in data set [1] stood at 100%. In data set [3], the lipophilicity (logP) came out at 1.56.
Take `NC(=O)N1c2ccccc2C=Cc2ccccc21` [Carbamazepine, reference compound]: the responders at 100 mg/kg in data set [1] worked out at 100%; in data set [2], 0%.
With `Cc1nc2nn(C)cc2c(=O)n1Cc1ccccc1C(F)(F)F` [Compound 63, 5-(2-trifluoromethylbenzyl)-2,6-dimethyl-2,5-dihydropyrazolo[3,4-d]pyrimidin-4-one], the melting point was in the range of 192 to 193 °C.
On the same count and under the same terms, to `O=c1c2cn(Cc3ccccc3)nc2ncn1Cc1c(F)cccc1Cl` [Compound 54, 5-(2-chloro-6-fluorobenzyl)-2-benzyl-2,5-dihydropyrazolo[3,4-d]pyrimidin-4-one] belongs 176 to 177 °C.
The compound `CCn1cc2c(=O)n(Cc3c(F)cccc3Cl)cnc2n1` [Compound 35, 5-(2-chloro-6-fluorobenzyl)-2-ethyl-2,5-dihydropyrazolo[3,4-d]pyrimidin-4-one] returned a melting point of 207 to 209 °C.
